In the supplement of paper PMC10883282:

Experiments:
Experiment in all cases: relative viability vs DMSO control (72 h) (fraction); higher = more viable cells
[1] = tested on: SW872
In short: (§1)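 After seeding at densities set for 80–90% confluence in 384-well plates, sarcoma cell lines waited 24 h before 2.5 µl of serially diluted compound was added. Source plates held 10 mM down to 0.0002 mM. Plates were incubated 72 h at 37 °C with 5% CO2, with 0.1% DMSO vehicle and a 5 µM positive control, and relative viability was taken from ATPLite as percent growth averaged over up to triplicate wells, with 1 set as full and 0 as none.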

[2] = tested on: KHOS-240S
In short: as §1

[3] = tested on: SK-LMS-1
In short: as §1

[4] = tested on: SW1353
In short: as §1

[5] = tested on: RD-ES
In short: as §1

[6] = tested on: HT1080
In short: as §1

[7] = tested on: RD
In short: as §1

[8] = tested on: SYO-1
In short: as §1

[9] = tested on: G401
In short: as §1

[10] = tested on: HS729
In short: as §1

[11] = tested on: SW684
In short: as §1

[12] = tested on: KHOS-NP
In short: as §1

COC(=O)c1ccc2c(c1)NC(=O)/C2=C(\Nc1ccc(N(C)C(=O)CN2CCN(C)CC2)cc1)c1ccccc1 [Nintedanib]
Conditions | relative viability
[1], 0.00017 µM | 1.05
[1], 0.00051 µM | 1.03
[1], 0.00152 µM | 1.02
[1], 0.00457 µM | 1.03
[1], 0.01372 µM | 1.03
[1], 0.04115 µM | 1.03
[1], 0.1235 µM | 1.03
[1], 0.3704 µM | 1.04
[1], 1.111 µM | 0.989
[1], 3.333 µM | 0.963
[1], 10 µM | 0.809
[2], 0.00017 µM | 1.05
[2], 0.00051 µM | 1.05
[2], 0.00152 µM | 1.04
[2], 0.00457 µM | 1.04
[2], 0.01372 µM | 1.04
[2], 0.04115 µM | 1.02
[2], 0.1235 µM | 0.985
[2], 0.3704 µM | 0.875
[2], 1.111 µM | 0.702
[2], 3.333 µM | 0.6
[2], 10 µM | 0.101
[3], 0.00017 µM | 1.16
[3], 0.00051 µM | 1.13
[3], 0.00152 µM | 1.13
[3], 0.00457 µM | 1.09
[3], 0.01372 µM | 1.11
[3], 0.04115 µM | 1.08
[3], 0.1235 µM | 1.073
[3], 0.3704 µM | 1.07
[3], 1.111 µM | 1.03
[3], 3.333 µM | 0.932
[3], 10 µM | 0.145
[4], 0.00017 µM | 0.995
[4], 0.00051 µM | 1.07
[4], 0.00152 µM | 1.02
[4], 0.00457 µM | 1.04
[4], 0.01372 µM | 1.02
[4], 0.04115 µM | 1.01
[4], 0.1235 µM | 1.01
[4], 0.3704 µM | 0.999
[4], 1.111 µM | 0.958
[4], 3.333 µM | 0.947
[4], 10 µM | 0.57
[5], 0.00017 µM | 0.955
[5], 0.00051 µM | 0.96
[5], 0.00152 µM | 0.944
[5], 0.00457 µM | 0.958
[5], 0.01372 µM | 0.945
[5], 0.04115 µM | 0.927
[5], 0.1235 µM | 0.806
[5], 0.3704 µM | 0.73
[5], 1.111 µM | 0.706
[5], 3.333 µM | 0.667
[5], 10 µM | 0.203
[6], 0.00017 µM | 1.05
[6], 0.00051 µM | 1.08
[6], 0.00152 µM | 1.06
[6], 0.00457 µM | 1.06
[6], 0.01372 µM | 1.069
[6], 0.04115 µM | 1.07
[6], 0.1235 µM | 1.06
[6], 0.3704 µM | 1.06
[6], 1.111 µM | 1.07
[6], 3.333 µM | 1.01
[6], 10 µM | 0.084
[7], 0.00017 µM | 1.03
[7], 0.00051 µM | 1.03
[7], 0.00152 µM | 0.989
[7], 0.00457 µM | 1.01
[7], 0.01372 µM | 0.977
[7], 0.04115 µM | 0.97
[7], 0.1235 µM | 0.96
[7], 0.3704 µM | 0.965
[7], 1.111 µM | 0.873
[7], 3.333 µM | 0.777
[7], 10 µM | 0.0216
[8], 0.00017 µM | 1
[8], 0.00051 µM | 0.985
[8], 0.00152 µM | 0.971
[8], 0.00457 µM | 0.97
[8], 0.01372 µM | 0.901
[8], 0.04115 µM | 0.713
[8], 0.1235 µM | 0.643
[8], 0.3704 µM | 0.467
[8], 1.111 µM | 0.369
[8], 3.333 µM | 0.292
[8], 10 µM | 0.099
[9], 0.00017 µM | 1
[9], 0.00051 µM | 0.99
[9], 0.00152 µM | 0.992
[9], 0.00457 µM | 1.03
[9], 0.01372 µM | 0.98
[9], 0.04115 µM | 0.987
[9], 0.1235 µM | 0.977
[9], 0.3704 µM | 0.891
[9], 1.111 µM | 0.721
[9], 3.333 µM | 0.485
[9], 10 µM | 0.0535
[10], 0.00017 µM | 0.981
[10], 0.00051 µM | 1
[10], 0.00152 µM | 1.01
[10], 0.00457 µM | 0.99
[10], 0.01372 µM | 1.04
[10], 0.04115 µM | 0.973
[10], 0.1235 µM | 0.929
[10], 0.3704 µM | 0.863
[10], 1.111 µM | 0.738
[10], 3.333 µM | 0.626
[10], 10 µM | 0.119
[11], 0.00017 µM | 1.09
[11], 0.00051 µM | 1.11
[11], 0.00152 µM | 1.15
[11], 0.00457 µM | 1.12
[11], 0.01372 µM | 1.13
[11], 0.04115 µM | 1.17
[11], 0.1235 µM | 1.13
[11], 0.3704 µM | 1.11
[11], 1.111 µM | 1
[11], 3.333 µM | 0.96
[11], 10 µM | 0.422
[12], 0.00017 µM | 1.06
[12], 0.00051 µM | 1.06
[12], 0.00152 µM | 1.06
[12], 0.00457 µM | 1.06
[12], 0.01372 µM | 1.06
[12], 0.04115 µM | 1.06
[12], 0.1235 µM | 1.05
[12], 0.3704 µM | 1.04
[12], 1.111 µM | 1.037
[12], 3.333 µM | 0.982
[12], 10 µM | 0.146
